For one data set, the target named is hCA I (Homo sapiens, UniProt P00915). Description: stopped flow CO2 hydrase assay, hCA I. Particulars: for Ki: stopped flow CO2 hydrase assay, errors ±5–10% of the stated values; for folds higher potency against hCA I when compared to the standard (AAZ, V): relative to AAZ. Format: biochemical. As for the experimental part: (§1) The activity of the CA-catalyzed CO2 hydration reaction was evaluated employing an applied photophysics stopped-flow instrument. […] A minimum of six traces of the starting 5–10% of the reaction were analysed to measure the initial velocity for each inhibitor. In a similar manner, the uncatalyzed rates were evaluated and subtracted from the overall calculated rates. Stock inhibitor solutions (10 mM) were prepared in distilled–deionized water, and dilutions up to 0.01 nM were prepared with distilled–deionized water after that. Preincubation of the inhibitor enzyme solutions at room temperature to enable the formation of the E-I complex was carried out for 15 min before starting the experiment. The inhibition constants were determined employing PRISM 3, while the kinetic parameters for the uninhibited enzymes were calculated using Lineweaver-Burk plots that comprise the mean of at least three separate measurements with errors ranging to ±5–10% of the stated values[37]^,[38].
Sequence of hCA I (P00915 whole entry): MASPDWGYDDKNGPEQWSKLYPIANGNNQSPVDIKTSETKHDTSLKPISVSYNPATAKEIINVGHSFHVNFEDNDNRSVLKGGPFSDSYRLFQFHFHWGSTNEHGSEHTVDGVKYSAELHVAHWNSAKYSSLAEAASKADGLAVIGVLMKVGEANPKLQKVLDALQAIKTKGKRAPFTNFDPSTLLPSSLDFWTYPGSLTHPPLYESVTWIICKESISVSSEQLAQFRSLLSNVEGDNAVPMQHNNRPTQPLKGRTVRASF
(§2) This panel comprised the two ubiquitously expressed cytosolic hCA I and II isoforms, along with the two tumour-related transmembrane hCA IX and XII isoforms.

A further data set deals with hCA IX (Homo sapiens, UniProt Q16790). The experiment in a line: stopped flow CO2 hydrase assay, hCA IX. Format: biochemical. Particulars: errors ±5–10% of the stated values. The procedure:
as §1, §2

The target of a further data set is hCA XII (Homo sapiens, UniProt O43570). Description: stopped flow CO2 hydrase assay, hCA XII. Particulars: errors ±5–10% of the stated values. It counts as biochemical. As for the experimental part:
as §1, §2

The next data set has as its target hCA II (Homo sapiens, UniProt P00918). The experiment in a line: stopped flow CO2 hydrase assay, hCA II. It counts as biochemical. As to conditions: for Ki: stopped flow CO2 hydrase assay, errors ±5–10% of the stated values; for inhibitory activity against hCA II (in words): compared to their para-sulphonamide analogues; for folds of potency compared to AAZ against isoform hCA II: relative to AAZ (12.1 nM). The procedure: as §1, §2

Molecules are shown by their SMILES.

Sequence of hCA XII (O43570 25-354): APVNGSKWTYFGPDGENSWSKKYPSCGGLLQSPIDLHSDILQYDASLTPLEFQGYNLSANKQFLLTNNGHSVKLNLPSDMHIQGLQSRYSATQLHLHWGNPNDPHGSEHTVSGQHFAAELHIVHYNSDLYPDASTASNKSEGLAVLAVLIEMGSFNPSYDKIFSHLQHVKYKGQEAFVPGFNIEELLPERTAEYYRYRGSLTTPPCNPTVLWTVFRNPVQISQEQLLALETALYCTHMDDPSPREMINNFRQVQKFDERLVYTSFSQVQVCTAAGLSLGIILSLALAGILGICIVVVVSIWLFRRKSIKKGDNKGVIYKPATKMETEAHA

For `NS(=O)(=O)c1ccc(Nc2ncnc3ccc(-c4ccc(C=O)cc4)cc23)cc1` [Compound 4b, 4-((6–(4-formylphenyl)quinazolin-4-yl)amino)benzenesulfonamide], the results for the Ki at hCA I, on hCA IX and at hCA XII were 651 nM, 86.9 nM and 67.4 nM, respectively.
Take `NS(=O)(=O)c1ccc(Nc2ncnc3ccc(-c4ccc(F)cc4)cc23)cc1` [Compound 4c, 4-((6–(4-fluorophenyl)quinazolin-4-yl)amino)benzenesulfonamide]: the Ki on hCA I worked out at 931 nM; at hCA II, 47.1 nM; on hCA IX it was 560 nM; at hCA XII it was 93 nM.
In the case of `NS(=O)(=O)c1ccc(Nc2ncnc3ccc(-c4ccsc4)cc23)cc1` [Compound 4f, 4-((6-(thiophen-3-yl)quinazolin-4-yl)amino)benzenesulfonamide], the “folds higher potency against hCA I when compared to the standard (AAZ, V)” value (shortened to “folds higher potency against hCA I when”) at hCA I is 4 folds. Moreover, the Ki at hCA I amounted to 60.9 nM; at hCA II it was 37.1 nM; at hCA IX, 86.5 nM; on hCA XII, 89.5 nM.
`NS(=O)(=O)c1cccc(Nc2ncnc3ccc(-c4ccccc4)cc23)c1` [Compound 4l, 3-((6-phenylquinazolin-4-yl)amino)benzenesulfonamide] gave a melting point of 327 to 329 °C. Besides, on hCA I, the Ki came to 6570 nM. At hCA II, the “inhibitory activity against hCA II (in words)” value is “loss of activity” and the Ki is 678 nM. Besides, the Ki at hCA IX amounted to 88.8 nM. Further, the inhibition constant (Ki) at hCA XII was found to be 89.4 nM.
Turning to `NS(=O)(=O)c1cccc(Nc2ncnc3cc(-c4cccc(O)c4)ccc23)c1` [Compound 4k, 3-((7–(3-hydroxyphenyl)quinazolin-4-yl)amino)benzenesulfonamide], the Ki was 4680 nM at hCA I, 2520 nM at hCA II, 90.3 nM at hCA IX and 69.7 nM at hCA XII. Moreover, the “inhibitory activity against hCA II (in words)” value at hCA II is given as “loss of activity”.
`NS(=O)(=O)c1cccc(Nc2ncnc3ccc(-c4ccc(F)cc4)cc23)c1` [Compound 4g, 3-((6–(4-fluorophenyl)quinazolin-4-yl)amino)benzenesulfonamide]: the inhibitory constant (Ki) on hCA I was 3130 nM; on hCA II, 231 nM; at hCA IX, 229 nM; at hCA XII it was 30.5 nM.
Turning to `NS(=O)(=O)c1cccc(Nc2ncnc3ccc(Br)cc23)c1` [Compound 3b], at hCA I, the “inhibitory activity against hCA I (in words)” value is recorded as “lost all activity”. Moreover, the inhibitory constant (Ki) came to 7100 nM at hCA I, 5760 nM at hCA II, 95.3 nM at hCA IX and 39.4 nM at hCA XII. For the same molecule, on hCA II, the “inhibitory activity against hCA II (in words)” value was “loss of activity”.
Take `NS(=O)(=O)c1cccc(Nc2ncnc3ccc(-c4ccc(C=O)o4)cc23)c1` [Compound 4i, 3-((6–(5-formylfuran-2-yl)quinazolin-4-yl)amino)benzenesulfonamide]: the inhibitory constant (Ki) stood at 5580 nM at hCA I, 2420 nM on hCA II, 488 nM on hCA IX and 52.7 nM at hCA XII.
As to `NS(=O)(=O)c1ccc(Nc2ncnc3cc(-c4cccc(O)c4)ccc23)cc1` [Compound 4j, 4-((7–(3-hydroxyphenyl)quinazolin-4-yl)amino)benzenesulfonamide], the Ki on hCA I is 361 nM; on hCA II, 66.3 nM; on hCA IX, 245 nM; on hCA XII, 66.7 nM.
Consider `NS(=O)(=O)c1ccc(Nc2ncnc3ccc(-c4ccccc4)cc23)cc1` [Compound 4a, 4-((6-phenylquinazolin-4-yl)amino)benzenesulfonamide], for which the Ki on hCA I was 600 nM; on hCA II, 2.4 nM; on hCA IX, 180 nM; on hCA XII, 65.7 nM. For the same molecule, at hCA II, the “folds of potency compared to AAZ against isoform hCA II” value (“folds of potency compared to AAZ” for short) was 5 folds.
As to `NS(=O)(=O)c1ccc(Nc2ncnc3ccc(-c4cccc([N+](=O)[O-])c4)cc23)cc1` [Compound 4d, 4-((6–(3-nitrophenyl)quinazolin-4-yl)amino)benzenesulfonamide], the Ki on hCA I was found to be 588 nM; on hCA II, 55.7 nM; at hCA IX, 265 nM; at hCA XII it was 90.7 nM.
The corresponding values for `NS(=O)(=O)c1ccc(Nc2ncnc3ccc(-c4ccc(N5CCOCC5)cc4)cc23)cc1` [Compound 4h, 4-((6–(4-morpholinophenyl)quinazolin-4-yl)amino)benzenesulfonamide] are 548 nM, 112 nM, 337 nM and 49.8 nM.
Take `NS(=O)(=O)c1ccc(Nc2ncnc3ccc(Br)cc23)cc1` [Compound 3a]: on hCA I, the “folds higher potency against hCA I when” value worked out at 2.8 folds. Moreover, the Ki at hCA I amounted to 89.4 nM; at hCA II, 8.7 nM; on hCA IX it was 174 nM; at hCA XII, 46.5 nM. The “folds of potency compared to AAZ” value at hCA II is on record as 1.4 folds.
On to `COc1ccc(-c2ccc3ncnc(Nc4ccc(S(N)(=O)=O)cc4)c3c2)cc1` [Compound 4e, 4-((6–(4-methoxyphenyl)quinazolin-4-yl)amino)benzenesulfonamide], for which, on hCA I, the “folds higher potency against hCA I when” value is listed as 2.7 folds. Further, the inhibition constant Ki on hCA I was found to be 91.2 nM; at hCA II, 4.6 nM; on hCA IX, 86.9 nM; at hCA XII, 77 nM. For the same molecule, the “folds of potency compared to AAZ” value on hCA II is 2.6 folds.

In general, Ki refers to a measure of affinity in units of concentration, obtained from inhibition or displacement. Lower therefore signals a stronger hold on the target. As usually defined, the melting point is the temperature of the solid-liquid transition.

Source of the values: publication PMC8973350, “4-Anilinoquinazoline-based benzenesulfonamides as nanomolar inhibitors of carbonic anhydrase isoforms I, II, IX, and XII: design, synthesis, in-vitro, and in-silico biological studies” (Journal of Enzyme Inhibition and Medicinal Chemistry, 2022).
